According to paper PMC9090415, “Discovery of small molecule inhibitors of Plasmodium falciparum apicoplast DNA polymerase” (Journal of Enzyme Inhibition and Medicinal Chemistry, 2022):

Biological target: P. falciparum apicoplast DNA polymerase (Pf-apPOL) (Plasmodium falciparum, UniProt Q8ILY1)
Assay: Fluorescence-based high-throughput DNA polymerase assay (molecular beacon), primary screen and dose-response;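 as to % inhibition ApPOL 90': test concentration in µM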;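 as to % inhibition Apol 40': compound concentration given in µM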;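 as to % inhibition apPOL 180': test concentration in µM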
Type: biochemical
Settings: for DNA Pol: 90 min, 10 µM
Method in brief: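 Single-point screening used 10 µM compound with 20 nM polymerase, 20 nM hairpin substrate and 6 µM dNTPs for 90 min at 25 °C. Confirmatory titrations (2.5–80 µM) followed fluorescence at three times, and IC50 was derived from a fit including a cooperativity term n.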

[1] = 'DNA Pol' of the 186 hits list (screen value)
[2] = primary screen value, "DNA Pol"

P. falciparum apicoplast DNA polymerase (Pf-apPOL), sequence (Q8ILY1 entry or part of it): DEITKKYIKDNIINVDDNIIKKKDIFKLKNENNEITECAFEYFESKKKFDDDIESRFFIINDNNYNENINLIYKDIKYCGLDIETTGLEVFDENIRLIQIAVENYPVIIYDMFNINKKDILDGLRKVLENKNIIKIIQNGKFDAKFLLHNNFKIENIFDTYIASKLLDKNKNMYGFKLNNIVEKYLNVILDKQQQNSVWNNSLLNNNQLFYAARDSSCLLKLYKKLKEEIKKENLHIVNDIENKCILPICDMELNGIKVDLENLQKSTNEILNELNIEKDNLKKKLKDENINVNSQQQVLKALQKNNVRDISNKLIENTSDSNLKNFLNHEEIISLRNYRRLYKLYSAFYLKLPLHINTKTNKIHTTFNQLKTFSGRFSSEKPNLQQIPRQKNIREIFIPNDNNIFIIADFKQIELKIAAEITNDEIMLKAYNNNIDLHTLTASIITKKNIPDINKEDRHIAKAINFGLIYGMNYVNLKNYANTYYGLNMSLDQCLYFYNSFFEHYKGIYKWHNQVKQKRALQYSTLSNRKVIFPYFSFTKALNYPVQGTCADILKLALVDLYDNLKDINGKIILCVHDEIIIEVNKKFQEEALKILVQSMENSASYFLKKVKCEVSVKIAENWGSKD

O=c1nc(/C=C/c2ccc(Br)cc2)oc2ccccc12 [KU0052629]
DNA Pol [1]: 39
% inhibition Apo pol 10' (DRC-1, conc 2.5): -0.8795%
% inhibition Apo pol 10' (DRC-1, conc 5): 1.877%
% inhibition Apo pol 10' (DRC-1, conc 10): 5.765%
% inhibition Apo pol 10' (DRC-1, conc 20): 17.2321%
% inhibition Apo pol 10' (DRC-1, conc 40): 88.0772%
% inhibition Apo pol 10' (DRC-1, conc 80): 96.3156%
% inhibition Apol 90' (DRC-1, conc 2.5): -3.77%
% inhibition Apol 90' (DRC-1, conc 5): -1.711%
% inhibition Apol 90' (DRC-1, conc 10): 2.797%
% inhibition Apol 90' (DRC-1, conc 20): 11.2319%
% inhibition Apol 90' (DRC-1, conc 40): 85.0713%
% inhibition Apol 90' (DRC-1, conc 80): 92.172%
% inhibition apPOL 180' (DRC-1, conc 2.5): -7.96%
% inhibition apPOL 180' (DRC-1, conc 5): -5.094%
% inhibition apPOL 180' (DRC-1, conc 10): -1.853%
% inhibition apPOL 180' (DRC-1, conc 20): 4.7876%
% inhibition apPOL 180' (DRC-1, conc 40): 80.0065%
% inhibition apPOL 180' (DRC-1, conc 80): 94.1472%
% inhibition Apo pol 5' (DRC-2, conc 2.5): 6%
% inhibition Apo pol 5' (DRC-2, conc 5): -1.24%
% inhibition Apo pol 5' (DRC-2, conc 10): 6%
% inhibition Apo pol 5' (DRC-2, conc 20): 35%
% inhibition Apo pol 5' (DRC-2, conc 40): 60%
% inhibition Apo pol 5' (DRC-2, conc 80): 61%
% inhibition Apo pol 5' (DRC-2, concentration 2.5): 6%
% inhibition Apo pol 5' (DRC-2, concentration 10): 6%
% inhibition Apol 40' (DRC-2, conc 2.5): 8%
% inhibition Apol 40' (DRC-2, conc 5): -2.13%
% inhibition Apol 40' (DRC-2, conc 10): 5.6%
% inhibition Apol 40' (DRC-2, conc 20): 48%
% inhibition Apol 40' (DRC-2, conc 40): 77%
% inhibition Apol 40' (DRC-2, conc 80): 75%
% inhibition Apol 40' (DRC-2, concentration 2.5): 8%
% inhibition ApPOL 90' (DRC-2, conc 2.5): 8%
% inhibition ApPOL 90' (DRC-2, conc 5): -2%
% inhibition ApPOL 90' (DRC-2, conc 10): 5%
% inhibition ApPOL 90' (DRC-2, conc 20): 45%
% inhibition ApPOL 90' (DRC-2, conc 40): 79%
% inhibition ApPOL 90' (DRC-2, conc 80): 79%
% inhibition ApPOL 90' (DRC-2, concentration 2.5): 8%
% inhibition ApPOL 90' (DRC-2, concentration 40): 79%
% inhibition ApPOL 90' (DRC-2, concentration 80): 79%
% inhibition apPOL 180' (DRC-2, conc 2.5): 6%
% inhibition apPOL 180' (DRC-2, conc 5): -4%
% inhibition apPOL 180' (DRC-2, conc 10): 2.72%
% inhibition apPOL 180' (DRC-2, conc 20): 37%
% inhibition apPOL 180' (DRC-2, conc 40): 79%
% inhibition apPOL 180' (DRC-2, conc 80): 79%
% inhibition apPOL 180' (DRC-2, concentration 2.5): 6%
% inhibition apPOL 180' (DRC-2, concentration 40): 79%
% inhibition apPOL 180' (DRC-2, concentration 80): 79%
DNA Pol [2]: 39

O=C(CSc1nnc(-c2ccncc2)[nH]1)c1ccc(O)c(O)c1 [Molecule 89]
IC50 (supplemental file 2, sheet IC50 nontoxic compounds, Pf-apPOL): < 2500 nM

Cc1ccc(NC(=O)Cn2ccc3c(=O)[nH]ccc32)c(C)c1 [KU0205125]
DNA Pol [1]: 21
% inhibition Apo pol 10' (DRC-1, conc 2.5): 10.1191%
% inhibition Apo pol 10' (DRC-1, conc 5): 18.1282%
% inhibition Apo pol 10' (DRC-1, conc 10): 33.277%
% inhibition Apo pol 10' (DRC-1, conc 20): 57.4285%
% inhibition Apo pol 10' (DRC-1, conc 40): 86.5673%
% inhibition Apo pol 10' (DRC-1, conc 80): 93.6236%
% inhibition Apol 90' (DRC-1, conc 2.5): 1.128%
% inhibition Apol 90' (DRC-1, conc 5): 2.856%
% inhibition Apol 90' (DRC-1, conc 10): 16.2688%
% inhibition Apol 90' (DRC-1, conc 20): 36.6738%
% inhibition Apol 90' (DRC-1, conc 40): 74.6586%
% inhibition Apol 90' (DRC-1, conc 80): 93.7132%
% inhibition apPOL 180' (DRC-1, conc 2.5): -4.92%
% inhibition apPOL 180' (DRC-1, conc 5): -5.3418%
% inhibition apPOL 180' (DRC-1, conc 10): 4.52%
% inhibition apPOL 180' (DRC-1, conc 20): 18.6019%
% inhibition apPOL 180' (DRC-1, conc 40): 59.9504%
% inhibition apPOL 180' (DRC-1, conc 80): 92.9849%
% inhibition Apo pol 5' (DRC-2, conc 2.5): -2.19%
% inhibition Apo pol 5' (DRC-2, conc 5): 1.9%
% inhibition Apo pol 5' (DRC-2, conc 10): 23%
% inhibition Apo pol 5' (DRC-2, conc 20): 44%
% inhibition Apo pol 5' (DRC-2, conc 40): 52%
% inhibition Apo pol 5' (DRC-2, conc 80): 50%
% inhibition Apo pol 5' (DRC-2, concentration 20): 44%
% inhibition Apol 40' (DRC-2, conc 2.5): -3.78%
% inhibition Apol 40' (DRC-2, conc 5): -0.571%
% inhibition Apol 40' (DRC-2, conc 10): 20%
% inhibition Apol 40' (DRC-2, conc 20): 48%
% inhibition Apol 40' (DRC-2, conc 40): 70%
% inhibition Apol 40' (DRC-2, conc 80): 73%
% inhibition ApPOL 90' (DRC-2, conc 2.5): -5%
% inhibition ApPOL 90' (DRC-2, conc 5): -4%
% inhibition ApPOL 90' (DRC-2, conc 10): 15%
% inhibition ApPOL 90' (DRC-2, conc 20): 44%
% inhibition ApPOL 90' (DRC-2, conc 40): 71%
% inhibition ApPOL 90' (DRC-2, conc 80): 78%
% inhibition ApPOL 90' (DRC-2, concentration 20): 44%
% inhibition apPOL 180' (DRC-2, conc 2.5): -10%
% inhibition apPOL 180' (DRC-2, conc 5): -11%
% inhibition apPOL 180' (DRC-2, conc 10): 3%
% inhibition apPOL 180' (DRC-2, conc 20): 30%
% inhibition apPOL 180' (DRC-2, conc 40): 69%
% inhibition apPOL 180' (DRC-2, conc 80): 82%
DNA Pol [2]: 21
